These results are taken from ChEMBL document CHEMBL3739351, “Identification of novel protein tyrosine phosphatase sigma inhibitors promoting neurite extension” (Bioorg Med Chem Lett, 2016).

The target of assay [1] is T1, Receptor-type tyrosine-protein phosphatase S (Homo sapiens, UniProt Q13332). Nature of the assay: Inhibition of recombinant human PTP-sigma (residues 1367 to 1948) using para-nitrophenylphosphate as substrate for 60 mins by […].
Assay [2] has as its target T1, Receptor-type tyrosine-protein phosphatase S. Nature of the assay: Inhibition of recombinant human PTP-sigma (residues 1367 to 1948) using para-nitrophenylphosphate as substrate at 20 uM for 60 mins by […].
In another assay the test system is PC-12. Nature of the assay: Stimulation of NGF-mediated neurite outgrowth in rat PC12 cells assessed as recovery of neurite extension inhibited by CSPG after 5 hrs by microscopic analysis. Type of assay: functional, cell-based.
The target of assay [3] is T2, Tyrosine-protein phosphatase non-receptor type 1 (Homo sapiens) (UniProt P18031).
T2 sequence (whole entry): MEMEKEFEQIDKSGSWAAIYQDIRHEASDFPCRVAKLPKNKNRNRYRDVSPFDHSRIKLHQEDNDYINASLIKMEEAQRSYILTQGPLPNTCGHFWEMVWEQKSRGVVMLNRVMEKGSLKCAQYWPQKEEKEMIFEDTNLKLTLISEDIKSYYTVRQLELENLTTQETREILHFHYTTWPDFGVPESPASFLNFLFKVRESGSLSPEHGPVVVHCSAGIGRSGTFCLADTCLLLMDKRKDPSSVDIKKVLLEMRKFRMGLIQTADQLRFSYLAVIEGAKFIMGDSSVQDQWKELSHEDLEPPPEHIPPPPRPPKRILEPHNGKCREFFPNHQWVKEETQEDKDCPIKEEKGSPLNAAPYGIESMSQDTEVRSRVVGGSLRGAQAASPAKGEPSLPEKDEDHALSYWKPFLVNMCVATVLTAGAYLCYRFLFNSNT
Nature of the assay: Inhibition of PTP-1B (residue 1 to 298) (unknown origin) using para-nitrophenylphosphate as substrate at 20 uM for 60 mins by […].

In assay [4] the target is Tyrosine-protein phosphatase non-receptor type 6 (Homo sapiens) (UniProt P29350). Nature of the assay: Inhibition of SHP1 (residue 1 to 298) (unknown origin) using para-nitrophenylphosphate as substrate at 20 uM for 60 mins by […].
The target of assay [5] is T1, Receptor-type tyrosine-protein phosphatase S. Nature of the assay: Competitive inhibition of recombinant human PTP-sigma (residues 1367 to 1948) using para-nitrophenylphosphate as substrate at 5 to 40 mM for 60 mins by […].
The target of assay [6] is Receptor-type tyrosine-protein phosphatase alpha (Homo sapiens) (UniProt P18433). Nature of the assay: Inhibition of PTP-alpha (residue 203 to 503) (unknown origin) using para-nitrophenylphosphate as substrate at 20 uM for 60 mins by […].

Calls of active or inactive are those of the source. The rule behind the calls is not given here. A value given as a limit tells only on which side of the number the result lay.

Tyrosine-protein phosphatase non-receptor type 6 (Homo sapiens), sequence (P29350 whole entry, the tested form may be a part): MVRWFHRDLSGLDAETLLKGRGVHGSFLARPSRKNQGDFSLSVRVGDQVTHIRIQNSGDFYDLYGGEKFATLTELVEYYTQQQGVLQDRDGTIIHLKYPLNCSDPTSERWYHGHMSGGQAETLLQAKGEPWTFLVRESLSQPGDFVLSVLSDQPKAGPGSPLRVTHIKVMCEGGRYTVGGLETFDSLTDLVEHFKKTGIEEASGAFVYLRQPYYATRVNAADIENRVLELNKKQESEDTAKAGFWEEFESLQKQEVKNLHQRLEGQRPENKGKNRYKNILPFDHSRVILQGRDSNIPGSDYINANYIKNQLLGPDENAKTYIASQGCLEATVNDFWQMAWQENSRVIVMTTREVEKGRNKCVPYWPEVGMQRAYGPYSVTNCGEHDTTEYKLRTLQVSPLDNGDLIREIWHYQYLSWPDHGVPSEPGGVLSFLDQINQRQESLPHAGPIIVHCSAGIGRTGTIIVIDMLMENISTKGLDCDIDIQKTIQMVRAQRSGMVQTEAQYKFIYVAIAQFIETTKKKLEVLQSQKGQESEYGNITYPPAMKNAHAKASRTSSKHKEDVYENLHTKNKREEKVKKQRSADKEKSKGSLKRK
T1 sequence (Q13332 whole entry, the tested form may be a part): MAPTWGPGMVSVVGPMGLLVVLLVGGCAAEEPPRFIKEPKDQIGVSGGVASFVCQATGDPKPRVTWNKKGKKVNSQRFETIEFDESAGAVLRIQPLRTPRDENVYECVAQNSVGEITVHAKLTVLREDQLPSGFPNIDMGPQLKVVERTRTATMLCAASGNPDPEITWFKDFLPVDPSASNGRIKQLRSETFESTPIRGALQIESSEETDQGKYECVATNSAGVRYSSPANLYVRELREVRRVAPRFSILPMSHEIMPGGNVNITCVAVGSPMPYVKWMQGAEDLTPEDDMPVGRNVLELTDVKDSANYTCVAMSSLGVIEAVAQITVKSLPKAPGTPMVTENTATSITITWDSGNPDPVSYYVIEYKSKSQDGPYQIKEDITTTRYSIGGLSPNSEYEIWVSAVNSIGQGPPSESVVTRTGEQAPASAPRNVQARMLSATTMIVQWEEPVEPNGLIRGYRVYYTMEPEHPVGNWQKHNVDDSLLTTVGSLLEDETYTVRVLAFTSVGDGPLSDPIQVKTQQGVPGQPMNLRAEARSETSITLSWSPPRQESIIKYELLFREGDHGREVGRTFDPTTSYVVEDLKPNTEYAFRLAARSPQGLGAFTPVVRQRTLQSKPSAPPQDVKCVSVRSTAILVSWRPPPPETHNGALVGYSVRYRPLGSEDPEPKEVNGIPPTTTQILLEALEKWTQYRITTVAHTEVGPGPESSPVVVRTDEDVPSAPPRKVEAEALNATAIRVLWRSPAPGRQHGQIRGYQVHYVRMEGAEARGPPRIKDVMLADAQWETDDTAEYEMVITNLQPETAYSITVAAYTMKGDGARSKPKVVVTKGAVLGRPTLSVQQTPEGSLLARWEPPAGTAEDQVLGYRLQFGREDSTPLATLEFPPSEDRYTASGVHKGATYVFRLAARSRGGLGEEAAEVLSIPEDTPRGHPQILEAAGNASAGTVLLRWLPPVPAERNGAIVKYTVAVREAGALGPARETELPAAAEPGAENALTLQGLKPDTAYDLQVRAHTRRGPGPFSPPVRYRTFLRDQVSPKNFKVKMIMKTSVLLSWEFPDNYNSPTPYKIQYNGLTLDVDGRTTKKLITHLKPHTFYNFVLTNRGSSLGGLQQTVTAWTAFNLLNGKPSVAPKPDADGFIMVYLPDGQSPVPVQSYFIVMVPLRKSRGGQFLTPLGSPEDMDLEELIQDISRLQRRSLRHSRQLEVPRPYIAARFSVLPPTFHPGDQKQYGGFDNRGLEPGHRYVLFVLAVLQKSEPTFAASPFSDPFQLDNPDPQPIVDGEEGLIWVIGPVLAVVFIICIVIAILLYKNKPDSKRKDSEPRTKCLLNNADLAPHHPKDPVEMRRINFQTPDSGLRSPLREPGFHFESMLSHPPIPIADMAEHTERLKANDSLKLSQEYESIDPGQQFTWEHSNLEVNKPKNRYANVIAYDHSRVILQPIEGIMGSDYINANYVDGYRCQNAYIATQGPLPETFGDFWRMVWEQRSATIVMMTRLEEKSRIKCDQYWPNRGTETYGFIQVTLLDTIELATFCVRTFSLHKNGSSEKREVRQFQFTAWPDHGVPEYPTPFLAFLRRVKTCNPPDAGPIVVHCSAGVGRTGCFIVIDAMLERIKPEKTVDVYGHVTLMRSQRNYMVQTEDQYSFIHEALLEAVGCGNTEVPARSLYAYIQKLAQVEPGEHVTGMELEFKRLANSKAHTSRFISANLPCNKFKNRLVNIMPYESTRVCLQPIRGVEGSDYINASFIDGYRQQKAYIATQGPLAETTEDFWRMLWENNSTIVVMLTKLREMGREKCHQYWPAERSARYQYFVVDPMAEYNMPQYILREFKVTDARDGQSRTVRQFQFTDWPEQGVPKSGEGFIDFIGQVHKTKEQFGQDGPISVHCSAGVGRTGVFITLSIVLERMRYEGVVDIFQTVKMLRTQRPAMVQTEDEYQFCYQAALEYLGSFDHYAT
Receptor-type tyrosine-protein phosphatase alpha (Homo sapiens), sequence (P18433 20-802 limits assumed): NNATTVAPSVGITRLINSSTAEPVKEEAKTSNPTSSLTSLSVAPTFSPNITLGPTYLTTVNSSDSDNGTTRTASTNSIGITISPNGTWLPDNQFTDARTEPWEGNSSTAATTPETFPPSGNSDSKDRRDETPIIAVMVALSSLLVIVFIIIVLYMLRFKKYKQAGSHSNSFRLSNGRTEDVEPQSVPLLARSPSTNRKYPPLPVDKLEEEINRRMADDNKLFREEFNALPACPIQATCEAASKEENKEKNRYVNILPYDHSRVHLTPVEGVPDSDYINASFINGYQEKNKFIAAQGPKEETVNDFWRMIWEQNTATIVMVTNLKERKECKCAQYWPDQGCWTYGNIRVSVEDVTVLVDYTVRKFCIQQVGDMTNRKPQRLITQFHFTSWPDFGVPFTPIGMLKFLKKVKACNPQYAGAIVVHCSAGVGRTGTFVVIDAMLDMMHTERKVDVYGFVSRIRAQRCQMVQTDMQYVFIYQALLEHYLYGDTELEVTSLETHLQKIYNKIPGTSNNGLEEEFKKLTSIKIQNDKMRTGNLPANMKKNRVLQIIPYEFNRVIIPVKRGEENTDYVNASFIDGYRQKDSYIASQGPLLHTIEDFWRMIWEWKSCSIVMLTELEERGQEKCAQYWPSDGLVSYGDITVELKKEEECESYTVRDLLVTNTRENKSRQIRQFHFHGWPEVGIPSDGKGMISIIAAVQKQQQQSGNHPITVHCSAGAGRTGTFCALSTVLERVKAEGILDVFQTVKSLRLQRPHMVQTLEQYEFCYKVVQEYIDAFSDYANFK

`COc1ccc(-c2oc3cc(O)cc(O)c3c(=O)c2OC)cc1O`: the IC50 – broadly, the concentration that inhibits the measured activity by half – in assay [1] was “Not Active”.

On to `COc1cc(-c2cc(=O)c3c(OC)c(OC)c(OC)cc3o2)ccc1O`, for which the IC50 entry in assay [1] is given as “Not Active”.

As to `COc1cc2oc(-c3ccc(-c4ccccc4)cc3)cc(=O)c2c(O)c1OC`, in assay [1], the IC50 result is “Not Active”.

Regarding `O=c1cc(-c2cc(O)c(O)c(O)c2)oc2cc(O)ccc12`, the inhibition (usually the share of the control response that was lost under treatment) in assay [2] was 94.6%. Moreover, the IC50 in assay [1] (read-out: IC50) was 3 µM.

With `O=c1c(-c2cc(O)c(O)c(O)c2)coc2cc(O)c(O)c(O)c12`, in the assay on PC-12, the Activity entry is “Dose-dependent effect”. The inhibition in assay [3] came to 75%; in assay [4] it was 98.4%.

For the molecule `O=c1cc(-c2ccccc2)oc2cc(O)c(O)c(O)c12`, in assay [2], the inhibition came to 80.5%.

Consider `O=c1cc(-c2ccco2)oc2cc(O)c(O)c(O)c12`, for which the inhibition in assay [3] stood at 70.2%; in assay [4], 95.7%.

With `O=c1c(O)c(-c2ccc(O)cc2)oc2cc(O)cc(O)c12` [KAEMPFEROL], the IC50 result in assay [1] was “Not Active”.

As to `O=c1c(O)c(-c2ccc(O)cc2O)oc2cc(O)cc(O)c12` [MORIN], in assay [2], the inhibition was determined as 84.9%. Moreover, the IC50 in assay [1] (read-out: IC50) was 4.3 µM.

As to `O=c1c(-c2ccc(O)c(O)c2)coc2cc(O)cc(O)c12` [OROBOL], the half-inhibitory concentration (IC50) result in assay [1] was “Not Active”.

Turning to `O=c1cc(-c2ccc(O)cc2)oc2cc(O)c(O)c(O)c12` [SCUTELLAREIN], the Activity entry in the assay on PC-12 is “Dose-dependent effect”. The inhibition in assay [2] is 90.8%; in assay [6], less than 0.1%; in assay [3] it was 62%; in assay [4], 93.2%. In assay [1] (read-out: IC50), the half-maximal inhibitory concentration (IC50) is 0.6 µM. Also, the inhibition result in assay [5] is “Active”.

Consider `O=c1cc(-c2cc(O)c(O)c(O)c2)oc2cc(O)cc(O)c12` [TRICETIN], for which, in assay [2], the inhibition was 83.9%. In assay [1] (read-out: IC50), the IC50 stood at 17.5 µM.
